Measurements published in patent US8183351B2, “Avermectin derivatives” (Bayer Cropscience AG, priority 2006, dated 2012).

What was measured:
[1] = tested on: caterpillars of the army worm (Spodoptera frugiperda); assay: Spodoptera frugiperda test (SPODFR spray treatment); assay type: in vivo; conditions: Example I; 4 ppm active compound; sprayed maize leaf discs
Description: Spodoptera frugiperda Test (SPODFR Spray Treatment)
• Solvents: 78.0 parts by weight of acetone • 1.5 parts by weight of dimethylformamide • Emulsifier: 0.5 part by weight of alkylaryl polyglyycol ether
After the desired period of time, the effect in % is determined. 100% means that all caterpillars have been killed; 0% means that none of the caterpillars have been killed.

[2] = tested on: larvae of the mustard beetle (Phaedon cochleariae); assay: Phaedon test (PHAECO spray treatment); assay type: in vivo; conditions: Example G; 4 ppm active compound; sprayed Chinese cabbage discs
Description: Phaedon Test (PHAECO Spray Treatment)
• Solvents: 78 parts by weight of acetone • 1.5 parts by weight of dimethylformamide • Emulsifier: 0.5 part by weight of alkylaryl polyglyycol ether
After the desired period of time, the effect in % is determined. 100% means that all beetle larvae have been killed; 0% means that none of the beetle larvae have been killed.

| SMILES | Kill rate in % after 5 days [1] [%] | Kill rate in % after 7 days [2] [%] |
| --- | --- | --- |
| CCCC(=O)OC1C(C)OC(O[C@@H]2/C(C)=C/C[C@@H]3C[C@@H](CC4(C=C[C@H](C)[C@@H]([C@@H](C)CC)O4)O3)OC(=O)C3C=C(C)[C@@H](O)[C@H]4OC/C(=C\C=C\[C@@H]2C)[C@@]34O)CC1OC (stereo partly drawn) [Example 28] | 100 | 100 |
| CCCCC(=O)OC1C(C)OC(O[C@@H]2/C(C)=C/C[C@@H]3C[C@@H](CC4(C=C[C@H](C)[C@@H]([C@@H](C)CC)O4)O3)OC(=O)C3C=C(C)[C@@H](O)[C@H]4OC/C(=C\C=C\[C@@H]2C)[C@@]34O)CC1OC (stereo partly drawn) [Example 29] | 100 | 100 |
| CC[C@H](C)[C@H]1OC2(C=C[C@@H]1C)C[C@@H]1C[C@@H](C/C=C(\C)[C@@H](OC3CC(OC)C(OC(=O)Cn4cncn4)C(C)O3)[C@@H](C)/C=C/C=C3\CO[C@@H]4[C@H](O)C(C)=CC(C(=O)O1)[C@]34O)O2 (stereo partly drawn) [Example 32] | 100 | 100 |
| CC[C@H](C)[C@H]1OC2(C=C[C@@H]1C)C[C@@H]1C[C@@H](C/C=C(\C)[C@@H](OC3CC(OC)C(OC(=O)Cc4cccnc4)C(C)O3)[C@@H](C)/C=C/C=C3\CO[C@@H]4[C@H](O)C(C)=CC(C(=O)O1)[C@]34O)O2 (stereo partly drawn) [Example 33] | 100 | 100 |
| CC[C@H](C)[C@H]1OC2(C=C[C@@H]1C)C[C@@H]1C[C@@H](C/C=C(\C)[C@@H](OC3CC(OC)C(OC(=O)Cn4cccn4)C(C)O3)[C@@H](C)/C=C/C=C3\CO[C@@H]4[C@H](O)C(C)=CC(C(=O)O1)[C@]34O)O2 (stereo partly drawn) [Example 35] | 100 | 100 |
| CC[C@H](C)[C@H]1OC2(C=C[C@@H]1C)C[C@@H]1C[C@@H](C/C=C(\C)[C@@H](OC3CC(OC)C(OC(=O)C4(F)CC4)C(C)O3)[C@@H](C)/C=C/C=C3\CO[C@@H]4[C@H](O)C(C)=CC(C(=O)O1)[C@]34O)O2 (stereo partly drawn) [Example 36] | 83 | 100 |
| CCC(C)C1OC2(C=CC1C)CC1CC(CC=C(C)C(OC3CC(OC)C(OC(=O)C(C)NC(=O)OC(C)(C)C)C(C)O3)C(C)C=CC=C3COC4C(O)C(C)=CC(C(=O)O1)C34O)O2 (stereo not drawn) [Example 40] | 100 | 100 |
| CC[C@H](C)[C@H]1OC2(C=C[C@@H]1C)C[C@@H]1C[C@@H](C/C=C(\C)[C@@H](OC3CC(OC)C(OC(=O)Cn4cnnn4)C(C)O3)[C@@H](C)/C=C/C=C3\CO[C@@H]4[C@H](O)C(C)=CC(C(=O)O1)[C@]34O)O2 (stereo partly drawn) [Example 42] | 100 | 83 |
| CC[C@H](C)[C@H]1OC2(C=C[C@@H]1C)C[C@@H]1C[C@@H](C/C=C(\C)[C@@H](OC3CC(OC)C(OC(=O)CN4C(=O)CCC4=O)C(C)O3)[C@@H](C)/C=C/C=C3\CO[C@@H]4[C@H](O)C(C)=CC(C(=O)O1)[C@]34O)O2 (stereo partly drawn) [Example 45] | 100 | 100 |
| CC[C@H](C)[C@H]1OC2(C=C[C@@H]1C)C[C@@H]1C[C@@H](C/C=C(\C)[C@@H](OC3CC(OC)C(OC(=O)Cn4ccc(C(F)(F)F)n4)C(C)O3)[C@@H](C)/C=C/C=C3\CO[C@@H]4[C@H](O)C(C)=CC(C(=O)O1)[C@]34O)O2 (stereo partly drawn) [Example 59] | 100 | 100 |
| CC[C@H](C)[C@H]1OC2(C=C[C@@H]1C)C[C@@H]1C[C@@H](C/C=C(\C)[C@@H](OC3CC(OC)C(OC(=O)C(C)c4ccc(Cl)nc4)C(C)O3)[C@@H](C)/C=C/C=C3\CO[C@@H]4[C@H](O)C(C)=CC(C(=O)O1)[C@]34O)O2 (stereo partly drawn) [Example 69] | 100 | 100 |
| CC[C@H](C)[C@H]1OC2(C=C[C@@H]1C)C[C@@H]1C[C@@H](C/C=C(\C)[C@@H](OC3CC(OC)C(OC(=O)Cc4cccn4C)C(C)O3)[C@@H](C)/C=C/C=C3\CO[C@@H]4[C@H](O)C(C)=CC(C(=O)O1)[C@]34O)O2 (stereo partly drawn) [Example 71] | 100 | 100 |
